One may read the IC50 as the point on the concentration scale where inhibition reaches its midpoint.

One experiment concerns the target T1, ZAP-70 (Homo sapiens, UniProt P43403).
T1 sequence (P43403 1-619): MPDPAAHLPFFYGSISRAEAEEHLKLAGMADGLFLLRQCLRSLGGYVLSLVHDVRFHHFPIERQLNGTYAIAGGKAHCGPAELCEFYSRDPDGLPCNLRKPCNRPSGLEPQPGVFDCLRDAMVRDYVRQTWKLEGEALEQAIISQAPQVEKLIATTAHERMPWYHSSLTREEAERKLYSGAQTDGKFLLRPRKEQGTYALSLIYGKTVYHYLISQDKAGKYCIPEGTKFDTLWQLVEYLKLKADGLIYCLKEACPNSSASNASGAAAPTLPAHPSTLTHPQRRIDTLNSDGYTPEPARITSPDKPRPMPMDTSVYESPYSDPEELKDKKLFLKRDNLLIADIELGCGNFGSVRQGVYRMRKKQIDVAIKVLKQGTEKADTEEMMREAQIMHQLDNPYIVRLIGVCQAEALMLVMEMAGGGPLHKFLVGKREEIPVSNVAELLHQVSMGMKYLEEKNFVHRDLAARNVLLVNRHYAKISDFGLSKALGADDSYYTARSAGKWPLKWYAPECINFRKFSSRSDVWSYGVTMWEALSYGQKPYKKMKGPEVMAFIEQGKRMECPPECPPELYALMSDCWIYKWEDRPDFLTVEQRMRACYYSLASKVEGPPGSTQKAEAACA
The experiment is described as follows: DELFIA assay (ZAP-70 kinase, phosphorylation of biotinylated poly(glu,tyr)). The format is biochemical. The conditions noted are these: ZAP-70 DELFIA, class symbols; read-out: Activity (IC50 in vitro). The essentials: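 3.1 nM ZAP-70 pre-incubated 10 min at room temperature with compound ([…]) and 62.5 nM biotinylated poly(glu,tyr) in 62.5 mM Mops pH 7.0, 12.5 mM MgCl2, 12.5% glycerol, 6.25% DMSO (pre-incubation concentrations); ATP added from 5 mM stock, 30 min reaction, EDTA stop. Phosphorylation read by DELFIA europium anti-phosphotyrosine fluorescence (340/615).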
In the case of `O=C(c1cc(NCc2ccc(C(F)(F)F)cc2)nc2ccc(/C=C/c3ccc(Cl)cc3)cc12)N1CCC[C@H]1CN1CCCC1` [Compound 286], the IC50 is less than 1000 nM. Take `O=C(c1cc(NCc2ccc(C(F)(F)F)cc2)nc2ccc(CCc3ccc(Cl)cc3)cc12)N1CCC[C@H]1CN1CCCC1` [Compound 287]: the IC50 was in the range of 1000 to 10000 nM. On the same count and under the same terms, with `O=C(c1cc(NCc2ccc(C(F)(F)F)cc2)nc2ccc(/C=C/c3cccc(C(F)(F)F)c3)cc12)N1CCC[C@H]1CN1CCCC1` [Compound 288] the figure was 1000 to 10000 nM.

Regarding `O=C(c1cc(NCc2ccc(C(F)(F)F)cc2)nc2ccc(CCc3cccc(C(F)(F)F)c3)cc12)N1CCC[C@H]1CN1CCCC1` [Compound 289], the IC50 was 1000 to 10000 nM. Consider `O=C(c1cc(NCc2ccc(C(F)(F)F)cc2)nc2ccc(/C=C/c3ccccc3)cc12)N1CCC[C@H]1CN1CCCC1` [Compound 290], for which the IC50 fell in the range of 1000 to 10000 nM. Same read-out and setting: with `CCCCc1ccc2nc(NCc3ccc(C(F)(F)F)cc3)cc(C(=O)N3CCC[C@H]3CN3CCCC3)c2c1` [Compound 291] the figure was more than 10000 nM. Turning to `O=C(c1cc(NCc2ccc(C(F)(F)F)cc2)nc2ccc(-c3cc(Cl)cc(Cl)c3)cc12)N1CCC[C@H]1CN1CCCC1` [Compound 292], the IC50 is less than 1000 nM.

Take `O=C(c1cc(NCc2ccc(C(F)(F)F)cc2)nc2ccc(-c3cccs3)cc12)N1CCC[C@H]1CN1CCCC1` [Compound 293]: the IC50 lay in the range of 1000 to 10000 nM.

`O=C(c1cc(NCc2ccc(C(F)(F)F)cc2)nc2ccc(-c3ccsc3)cc12)N1CCC[C@H]1CN1CCCC1` [Compound 294]: the IC50 was less than 1000 nM. On the same count and under the same terms, with `O=C(c1cc(NCc2ccc(C(F)(F)F)cc2)nc2ccc(-c3cccc(C(F)(F)F)c3)cc12)N1CCC[C@H]1CN1CCCC1` [Compound 295] the figure was 1000 to 10000 nM; with `O=C(c1cc(NCc2ccc(C(F)(F)F)cc2)nc2ccc(-c3ccc(C(F)(F)F)cc3)cc12)N1CCC[C@H]1CN1CCCC1` [Compound 296], 1000 to 10000 nM.

With `CC(=O)Nc1cccc(-c2ccc3nc(NCc4ccc(C(F)(F)F)cc4)cc(C(=O)N4CCC[C@H]4CN4CCCC4)c3c2)c1` [Compound 297], the IC50 was more than 10000 nM. For `O=C(c1cc(NCc2ccc(C(F)(F)F)cc2)nc2ccc(-c3cc4ccccc4s3)cc12)N1CCC[C@H]1CN1CCCC1` [Compound 298], the IC50 was 1000 to 10000 nM. On to `CC(=O)c1ccc(-c2ccc3nc(NCc4ccc(C(F)(F)F)cc4)cc(C(=O)N4CCC[C@H]4CN4CCCC4)c3c2)s1` [Compound 299], for which the IC50 is less than 1000 nM. As to `O=C(c1cc(NCc2ccc(C(F)(F)F)cc2)nc2ccc(-c3csc4ccccc34)cc12)N1CCC[C@H]1CN1CCCC1` [Compound 300], the IC50 is less than 1000 nM. The same measure, in the same setting: with `O=C(c1cc(NCc2ccc(C(F)(F)F)cc2)nc2ccc(-c3ccc(F)cc3)cc12)N1CCC[C@H]1CN1CCCC1` [Compound 302] the figure was less than 1000 nM; with `O=C(c1cc(NCc2ccc(C(F)(F)F)cc2)nc2ccc(-c3ccc(F)c(Cl)c3)cc12)N1CCC[C@H]1CN1CCCC1` [Compound 303], less than 1000 nM. Still for that read-out and setting: with `O=C(c1cc(NCc2ccc(C(F)(F)F)cc2)nc2ccc(-c3cccc(F)c3)cc12)N1CCC[C@H]1CN1CCCC1` [Compound 304] the figure was 1000 to 10000 nM; with `O=C(c1cc(NCc2ccc(C(F)(F)F)cc2)nc2ccc(-c3ccc(Cl)cc3)cc12)N1CCC[C@H]1CN1CCCC1` [Compound 305], less than 1000 nM; with `O=C(c1cc(NCc2ccc(C(F)(F)F)cc2)nc2ccc(-c3cccc(Cl)c3)cc12)N1CCC[C@H]1CN1CCCC1` [Compound 306], less than 1000 nM. Still for that read-out and setting: with `O=C(c1cc(NCc2ccc(C(F)(F)F)cc2)nc2ccc(-c3ccc(F)cc3F)cc12)N1CCC[C@H]1CN1CCCC1` [Compound 307] the figure was 1000 to 10000 nM.

`O=C(c1cc(NCc2ccc(C(F)(F)F)cc2)nc2ccc(-c3ccccc3F)cc12)N1CCC[C@H]1CN1CCCC1` [Compound 308]: the IC50 was 1000 to 10000 nM.

Take `O=C(c1cc(NCc2ccc(C(F)(F)F)cc2)nc2ccc(-c3ccc(OC(F)(F)F)cc3)cc12)N1CCC[C@H]1CN1CCCC1` [Compound 309]: the IC50 lay in the range of 1000 to 10000 nM.

Consider `O=C(c1cc(NCc2ccc(C(F)(F)F)cc2)nc2ccc(-c3cccc(OC(F)(F)F)c3)cc12)N1CCC[C@H]1CN1CCCC1` [Compound 310], for which the IC50 is less than 1000 nM. For the compound `CS(=O)(=O)c1ccc(CNc2cc(C(=O)N3CCC[C@H]3CN3CCCC3)c3cc(-c4ccc(C#N)cc4)ccc3n2)cc1` [Compound 311], the IC50 was 1000 to 10000 nM. The same measure, in the same setting: with `N#Cc1ccc(-c2ccc3nc(NCc4c(F)cccc4F)cc(C(=O)N4CCC[C@H]4CN4CCCC4)c3c2)cc1` [Compound 312] the figure was 1000 to 10000 nM; with `COc1ccccc1CCNc1cc(C(=O)N2CCC[C@H]2CN2CCCC2)c2cc(-c3ccc(C#N)cc3)ccc2n1` [Compound 313], 1000 to 10000 nM. The same measure, in the same setting: with `N#Cc1ccc(-c2ccc3nc(NC(CO)Cc4ccccc4)cc(C(=O)N4CCC[C@H]4CN4CCCC4)c3c2)cc1` (stereo partly drawn) [Compound 315] the figure was less than 1000 nM; with `N#Cc1ccc(-c2ccc3nc(N[C@H](CO)Cc4ccccc4)cc(C(=O)N4CCC[C@H]4CN4CCCC4)c3c2)cc1` [Compound 316], 1000 to 10000 nM. For `C[C@H](Nc1cc(C(=O)N2CCC[C@H]2CN2CCCC2)c2cc(-c3ccc(C#N)cc3)ccc2n1)[C@H](O)c1ccccc1` [Compound 317], the IC50 was less than 1000 nM. Same read-out and setting: with `N#Cc1ccc(-c2ccc3nc(NCc4ccc5c(c4)CCO5)cc(C(=O)N4CCC[C@H]4CN4CCCC4)c3c2)cc1` [Compound 318] the figure was 1000 to 10000 nM. Same read-out and setting: with `N#Cc1ccc(-c2ccc3nc(NCc4cccc(OC(F)F)c4)cc(C(=O)N4CCC[C@H]4CN4CCCC4)c3c2)cc1` [Compound 319] the figure was less than 1000 nM. Turning to `N#Cc1ccc(-c2ccc3nc(NCCc4cccc(O)c4)cc(C(=O)N4CCC[C@H]4CN4CCCC4)c3c2)cc1` [Compound 320], the IC50 lay within 1000 to 10000 nM. On to `N#Cc1ccc(-c2ccc3nc(NCc4cccc(O)c4)cc(C(=O)N4CCC[C@H]4CN4CCCC4)c3c2)cc1` [Compound 321], for which the IC50 fell in the range of 1000 to 10000 nM.

As to `O=C(c1cc(Sc2ccc(C(F)(F)F)cc2)nc2ccc(-c3ccc4c(c3)OCO4)cc12)N1CCC[C@H]1CN1CCCC1` [Compound 323], the IC50 was more than 10000 nM. With `O=C(c1cc(Sc2cccc(C(F)(F)F)c2)nc2ccc(-c3ccc4c(c3)OCO4)cc12)N1CCC[C@H]1CN1CCCC1` [Compound 324], the IC50 was less than 1000 nM. With `O=C(c1cc(Sc2ccc(OC(F)(F)F)cc2)nc2ccc(-c3ccc4c(c3)OCO4)cc12)N1CCC[C@H]1CN1CCCC1` [Compound 325], the IC50 was less than 1000 nM. Same read-out and setting: with `O=C(c1cc(SCc2ccc(Cl)cc2)nc2ccc(-c3ccc4c(c3)OCO4)cc12)N1CCC[C@H]1CN1CCCC1` [Compound 326] the figure was less than 1000 nM.

For the compound `O=C(c1cc(N2CCC[C@H]2CO)nc2ccc(-c3ccc4c(c3)OCO4)cc12)N1CCC[C@H]1CN1CCCC1` [Compound 327], the IC50 is more than 10000 nM. In the case of `COC[C@H]1CCCN1c1cc(C(=O)N2CCC[C@H]2CN2CCCC2)c2cc(-c3ccc4c(c3)OCO4)ccc2n1` [Compound 328], the 50% inhibitory concentration (IC50) was in the range of 1000 to 10000 nM. On the same count and under the same terms, with `COC[C@@H]1CCCN1c1cc(C(=O)N2CCC[C@H]2CN2CCCC2)c2cc(-c3ccc4c(c3)OCO4)ccc2n1` [Compound 329] the figure was more than 10000 nM.

As for `C[C@@H](Nc1cc(C(=O)N2CCC[C@H]2CN2CCCC2)c2cc(-c3ccc4c(c3)OCO4)ccc2n1)c1ccc(Cl)cc1` [Compound 330], the concentration for half-maximal inhibition (IC50) is less than 1000 nM.

For the compound `C[C@H](Nc1cc(C(=O)N2CCC[C@H]2CN2CCCC2)c2cc(-c3ccc4c(c3)OCO4)ccc2n1)c1ccc(Cl)cc1` [Compound 331], the IC50 was less than 1000 nM. Same read-out and setting: with `O=C(c1cc(NCc2ccc(C(F)(F)F)cc2)nc2ccc(-c3cncnc3)cc12)N1CCC[C@H]1CN1CCCC1` [Compound 332] the figure was more than 10000 nM; with `O=C(c1cc(NCc2ccc(C(F)(F)F)cc2)nc2ccc(-c3ccccn3)cc12)N1CCC[C@H]1CN1CCCC1` [Compound 333], more than 10000 nM. The same measure, in the same setting: with `O=C(c1cc(NCc2ccc(C(F)(F)F)cc2)nc2ccc(-c3cccnc3)cc12)N1CCC[C@H]1CN1CCCC1` [Compound 334] the figure was more than 10000 nM; with `O=C(c1cc(NCc2ccc(C(F)(F)F)cc2)nc2ccc(-c3cncc4ccccc34)cc12)N1CCC[C@H]1CN1CCCC1` [Compound 335], more than 10000 nM; with `O=C(c1cc(NCc2ccc(C(F)(F)F)cc2)nc2ccc(-c3ncccn3)cc12)N1CCC[C@H]1CN1CCCC1` [Compound 336], more than 10000 nM.

Regarding `Cc1ccsc1-c1ccc2nc(NCc3ccc(C(F)(F)F)cc3)cc(C(=O)N3CCC[C@H]3CN3CCCC3)c2c1` [Compound 337], the IC50 was more than 10000 nM. Same read-out and setting: with `Cc1noc(C)c1-c1ccc2nc(NCc3ccc(C(F)(F)F)cc3)cc(C(=O)N3CCC[C@H]3CN3CCCC3)c2c1` [Compound 338] the figure was more than 10000 nM.

Still in this experiment, the particulars now being: ZAP-70 DELFIA, numeric value; read-out: Activity (IC50 in vitro).
Consider `Cc1ccc(-c2ccc3nc(NCc4ccc(C(F)(F)F)cc4)cc(C(=O)N4CCC[C@H]4CN4CCCC4)c3c2)s1` [Compound 301], for which the IC50 was found to be 1780 nM.

The record behind these values is patent publication US20080119515A1, “Heterocyclic Kinase Inhibitors: Methods of Use and Synthesis” (priority 2003, published 2008).
